Laboratory results taken from patent US10647686B2, “Substituted pyrimidines for preventing or treating cancer and inflammatory diseases” (KOREA RESEARCH INSTITUTE OF CHEMICAL TECHNOLOGY, priority 2016, dated 2020).
pIC50: −log10 of the molar value.

Experiments:
DRAK2 = DRAK2 (Homo sapiens (Human), UniProt O94768); assay: DRAK2 kinase activity inhibition (ADP-Glo, MRCL3 peptide substrate); type: biochemical; conditions: for DRAK2 selectivity (DRAK2 versus DRAK1): from Table 4
Experimental: (§1) DRAK1 and DRAK2 recombinant proteins were purchased from SignalChem Inc. To measure the kinase enzyme activity, the ADP-Glo™ kit provided by Promega Inc. was used. Buffer A used in the kinase reaction was composed of 60 mM Tris-Cl (pH 7.5), 30 mM MgCl2 and 0.15% BSA. Just before the experiment, 1 mM DTT was prepared by diluting 1 M solution and added thereto.
(§2) To measure the DRAK1 and DRAK2 activity, the substrate MRCL3 peptide and ATP were mixed with the enzymes. After an appropriate period of time, the reaction product ADP was quantitatively analyzed.
(§3) The buffer solution A was used to make a 3× substrate solution of 3× concentration so that the final concentrations of ATP and MRCL3 peptides were 1 uM, respectively, and 2.5 μl of each solution was dispensed into Optiplate 384 (perkin-elmer) microplate.
(§4) The final concentrations of ATP and MRCL3 peptide were made to be 1 uM respectively by using buffer A, followed by preparing a 3× substrate solution. The prepared substrate solution was distributed in Optiplate 384 (Perkin-Elmer) microplate (2.5 ul/well). Then, the compounds of Examples 1˜39 and the compounds of Comparative Examples 1-6, whose concentrations were tripled by the final concentration were distributed thereto (2.5 ul/well). Lastly, DRAK1 or DRAK2 enzyme solution, properly diluted by using buffer A, was added thereto (2.5 ul/well). Centrifugation was performed at 800 rpm for 1 minute, and then enzyme reaction was induced at 30° C.
(§5) 2 hours later, the enzyme reaction was terminated. To eliminate residual ATP, ADP-Glo™ reagent contained in ADP-Glo™ was added to each well at the concentration of 7.5 ul, which was the same amount as the sum of the previously added reagents, followed by centrifugation at the same RPM and time as the above. Additional reaction was induced at room temperature for 40 minutes. To convert the ADP produced by the kinase activity to ATP, 15 ul of kinase detection buffer was added to each well, followed by centrifugation. Five minutes after the centrifugation was completed, the luminescence value of the reaction product was determined using Envision, and the enzyme activity inhibition effect of the compound was measured. Then, IC50 of each compound was determined using Prism program.
(§6) The compounds of Example 1 and Example 19 were used as the experimental group and the compound of Comparative Example 6 was used as the control.
To evaluate DRAK2 inhibition activity of the compound represented by formula 1 according to the number of n, the experiment was performed with the compounds of Example 1, Example 19, Example 40, Comparative Example 7 and W Comparative Example 8 by the same manner as described in Experimental Example 1, leading to the measurement of IC50 to DRAK2.

DRAK1 = DRAK1 (Homo sapiens (Human), UniProt Q9UEE5); assay: DRAK1 kinase activity inhibition (ADP-Glo, MRCL3 peptide substrate); type: biochemical
Experimental: as §1, §2, §3, §4, §5, §6

[1] = Table 3, recombinant enzyme, 1 uM ATP, 1 uM MRCL3 peptide, 30° C., 2 hours
[2] = Table 4, Experimental Example 2, DRAK2 selectivity evaluation
[3] = Table 5, Experimental Example 3, according to the number of n

Chain of DRAK2 (O94768 whole entry): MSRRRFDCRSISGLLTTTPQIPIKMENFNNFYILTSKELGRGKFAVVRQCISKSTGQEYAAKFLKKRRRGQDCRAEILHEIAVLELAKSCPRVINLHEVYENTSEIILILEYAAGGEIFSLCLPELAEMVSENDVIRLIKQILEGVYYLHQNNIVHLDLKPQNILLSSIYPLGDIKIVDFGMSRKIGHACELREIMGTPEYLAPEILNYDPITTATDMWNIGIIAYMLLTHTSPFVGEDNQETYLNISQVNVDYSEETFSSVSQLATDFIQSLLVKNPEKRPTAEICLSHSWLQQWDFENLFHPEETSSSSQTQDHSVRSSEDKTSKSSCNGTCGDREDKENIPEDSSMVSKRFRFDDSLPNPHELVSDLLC
Chain of DRAK1 (Q9UEE5 whole entry): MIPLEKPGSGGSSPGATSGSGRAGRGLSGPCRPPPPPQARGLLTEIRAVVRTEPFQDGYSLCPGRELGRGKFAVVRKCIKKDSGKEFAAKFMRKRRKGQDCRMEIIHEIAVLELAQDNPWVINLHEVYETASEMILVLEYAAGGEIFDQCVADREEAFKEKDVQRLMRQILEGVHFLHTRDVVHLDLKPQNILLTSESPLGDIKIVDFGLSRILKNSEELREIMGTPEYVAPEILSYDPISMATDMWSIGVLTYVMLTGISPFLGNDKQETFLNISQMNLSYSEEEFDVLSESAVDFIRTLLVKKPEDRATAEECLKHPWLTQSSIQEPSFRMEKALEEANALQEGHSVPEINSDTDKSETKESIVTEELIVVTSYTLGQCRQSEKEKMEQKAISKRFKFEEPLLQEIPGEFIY

SMILES | pIC50 (DRAK2; [1]) | further results
NCCCNc1nc(Nc2ccc(Cl)cc2)ncc1F [Comparative Example 1, N4-(3-aminopropyl)-N2-(4-chlorophenyl)-5-fluoropyrimidine-2,4-diamine, reference compound] | 6.52 | 
NCCCNc1nc(Nc2ccc(Cl)cc2)ncc1C(F)(F)F [Comparative Example 2, N4-(3-aminopropyl)-N2-(4-chlorophenyl)-5-(trifluoromethyl)pyrimidine-2,4-diamine, reference compound] | 6.92 | 
COc1cnc(Nc2ccc(Cl)cc2)nc1NCCCN [Comparative Example 3, N4-(3-aminopropyl)-N2-(4-chlorophenyl)-5-methoxypyrimidine-2,4-diamine, reference compound] | 6.06 | 
NCCCNc1ccnc(Nc2ccc(Cl)cc2)n1 [Comparative Example 4, N4-(3-aminopropyl)-N2-(4-chlorophenyl)pyrimidine-2,4-diamine, reference compound] | 5.96 | 
NCCCNc1nc(Nc2ccc(Cl)cc2)ncc1[N+](=O)[O-] [Comparative Example 5, N4-(3-aminopropyl)-N2-(4-chlorophenyl)-5-nitropyrimidine-2,4-diamine, reference compound] | 6.49 | 
NCCCNc1nc(Nc2ccc(Cl)cc2)ncc1Br [Comparative Example 6, reference compound] | 7.57 | pIC50 (DRAK2; [2]): 7.57; DRAK2 selectivity (DRAK2 versus DRAK1) (DRAK2; result in words): displayed both DRAK1 and DRAK2 inhibition activity; pIC50 (DRAK1; [1]): 7.40; pIC50 (DRAK1; [2]): 7.40
NCCNc1nc(Nc2ccc(Cl)cc2)ncc1Cl [Comparative Example 7, N4-(2-aminoethyl)-5-chloro-N2-(4-chlorophenyl)pyrimidine-2,4-diamine, reference compound] |  | pIC50 (DRAK2; [3]): 6.96
Cc1cnc(Nc2ccc(Cl)cc2)nc1NCCN [Comparative Example 8, N4-(2-aminoethyl)-N2-(4-chlorophenyl)-5-methylpyrimidine-2,4-diamine, reference compound] |  | pIC50 (DRAK2; [3]): 6.85
NCCCNc1nc(Nc2ccc(Cl)cc2)ncc1Cl [Example 1, N4-(3-aminopropyl)-5-chloro-N2-(4-chlorophenyl)pyrimidine-2,4-diamine] | 7.42 | pIC50 (DRAK2; [2]): 7.42; pIC50 (DRAK2; [3]): 7.49; DRAK2 selectivity (DRAK2 versus DRAK1) (DRAK2; result in words): excellent DRAK2 selectivity; DRAK2 IC50 compared with Comparative Examples 7 and 8 (n is 0) (DRAK2; result in words, from Table 5): significantly lower IC50; pIC50 (DRAK1; [1]): 6.39; pIC50 (DRAK1; [2]): 6.39
NCCCNc1nc(Nc2cc(Cl)cc(Cl)c2)ncc1Cl [Example 2, N4-(3-aminopropyl)-5-chloro-N2-(3,5-dichlorophenyl)pyrimidine-2,4-diamine] | 7.59 | 
CC(C)c1ccc(Nc2ncc(Cl)c(NCCCN)n2)cc1 [Example 3, N4-(3-aminopropyl)-5-chloro-N2-(4-isopropylphenyl)pyrimidine-2,4-diamine] | 7.96 | pIC50 (DRAK1; [1]): 6.62
CCCCCc1ccc(Nc2ncc(Cl)c(NCCCN)n2)cc1 [Example 4, N4-(3-aminopropyl)-5-chloro-N2-(4-pentylphenyl)pyrimidine-2,4-diamine] | 7.10 | 
CCCCCCCCc1ccc(Nc2ncc(Cl)c(NCCCN)n2)cc1 [Example 5, N4-(3-aminopropyl)-5-chloro-N2-(4-octylphenyl)pyrimidine-2,4-diamine] | 6.13 | 
Cc1ccc(Nc2ncc(Cl)c(NCCCN)n2)cc1Cl [Example 6, N4-(3-aminopropyl)-5-chloro-N2-(3-chloro-4-methylphenyl)pyrimidine-2,4-diamine] | 7.62 | pIC50 (DRAK1; [1]): 6.66
NCCCNc1nc(Nc2ccc(F)c(Cl)c2)ncc1Cl [Example 7, N4-(3-aminopropyl)-5-chloro-N2-(3-chloro-4-fluorophenyl)pyrimidine-2,4-diamine] | 7.15 | pIC50 (DRAK1; [1]): 6.70
NCCCNc1nc(Nc2ccc(Cl)c(Cl)c2)ncc1Cl [Example 8, N4-(3-aminopropyl)-5-chloro-N2-(3,4-dichlorophenyl)pyrimidine-2,4-diamine] | 7.23 | pIC50 (DRAK1; [1]): 6.51
NCCCNc1nc(Nc2ccc(F)cc2)ncc1Cl [Example 9, N4-(3-aminopropyl)-5-chloro-N2-(4-fluorophenyl)pyrimidine-2,4-diamine] | 7.72 | pIC50 (DRAK1; [1]): 6.54
NCCCNc1nc(Nc2ccc(Oc3ccccc3)cc2)ncc1Cl [Example 10, N4-(3-aminopropyl)-5-chloro-N2-(4-phenoxyphenyl)pyrimidine-2,4-diamine] | 7.59 | pIC50 (DRAK1; [1]): 6.74

SMILES | pIC50 (DRAK2; [1]) | further results
CCc1ccc(Nc2ncc(Cl)c(NCCCN)n2)cc1 [Example 11, N4-(3-aminopropyl)-5-chloro-N2-(4-ethylphenyl)pyrimidine-2,4-diamine] | 7.36 | pIC50 (DRAK1; [1]): 6.43
CCCCCCc1ccc(Nc2ncc(Cl)c(NCCCN)n2)cc1 [Example 12, N4-(3-aminopropyl)-5-chloro-N2-(4-hexylphenyl)pyrimidine-2,4-diamine] | 7.25 | pIC50 (DRAK1; [1]): 5.72
NCCCNc1nc(Nc2ccc(C3CCNCC3)cc2)ncc1Cl [Example 26, N4-(3-aminopropyl)-5-chloro-N2-(4-(piperidine-4-yl)phenyl)pyrimidine-2,4-diamine] | 7.72 | 
Cc1ccc(Nc2ncc(C)c(NCCCN)n2)cc1Cl [Example 27, N4-(3-aminopropyl)-N2-(3-chloro-4-methylphenyl)-5-methylpyrimidine-2,4-diamine] | 7.01 | 
Cc1cnc(Nc2ccc(F)cc2)nc1NCCCN [Example 28, N4-(3-aminopropyl)-N2-(4-fluorophenyl)-5-methylpyrimidine-2,4-diamine] | 6.72 | 
Cc1cnc(Nc2ccc(N3CCNCC3)cc2)nc1NCCCN [Example 29, N4-(3-aminopropyl)-5-methyl-N2-(4-(piperazine-1-yl)phenyl)pyrimidine-2,4-diamine] | 7.00 | 
Cc1cnc(Nc2ccc3c(c2)CCCC3)nc1NCCCN [Example 30, N4-(3-aminopropyl)-5-methyl-N2-(5,6,7,8-tetrahydronaphthalene-2-yl)pyrimidine-2,4-diamine] | 6.80 | 
Cc1cnc(Nc2ccc(F)c(C(F)(F)F)c2)nc1NCCCN [Example 31, N4-(3-aminopropyl)-N2-(4-fluoro-3-(trifluoromethyl)phenyl)-5-methylpyrimidine-2,4-diamine] | 6.74 | 
Cc1cnc(Nc2ccc(Br)c(C(F)(F)F)c2)nc1NCCCN [Example 32, N4-(3-aminopropyl)-N2-(4-bromo-3-(trifluoromethyl)phenyl)-5-methylpyrimidine-2,4-diamine] | 5.85 | 
Cc1cnc(Nc2ccc(Oc3ccccc3)cc2)nc1NCCCN [Example 33, N4-(3-aminopropyl)-5-methyl-N2-(4-phenoxyphenyl)pyrimidine-2,4-diamine] | 6.31 | 
Cc1cnc(Nc2ccc(S(=O)(=O)c3ccc([N+](=O)[O-])cc3)cc2)nc1NCCCN [Example 34, N4-(3-aminopropyl)-5-methyl-N2-(4-(4-nitrophenylsulfonyl)phenyl)pyrimidine-2,4-diamine] | 6.47 | 
Cc1cnc(Nc2ccc(Br)cc2)nc1NCCCN [Example 35, N4-(3-aminopropyl)-N2-(4-bromophenyl)-5-methylpyrimidine-2,4-diamine] | 7.05 | 
Cc1cnc(Nc2ccc3c(c2)OCCO3)nc1NCCCN [Example 36, N4-(3-aminopropyl)-N2-(2,3-dihydrobenzo[b][1,4]dioxin-6-yl)-5-methylpyrimidine-2,4-diamine] | 6.96 | 
Cc1ccc(Nc2ncc(C)c(NCCCN)n2)cc1C [Example 37, N4-(3-aminopropyl)-N2-(3,4-dimethylphenyl)-5-methylpyrimidine-2,4-diamine] | 7.09 | 
Cc1cnc(Nc2ccc(F)c(Cl)c2)nc1NCCCN [Example 38, N4-(3-aminopropyl)-N2-(3-chloro-4-fluorophenyl)-5-methylpyrimidine-2,4-diamine] | 7.46 | 
Cc1cnc(Nc2ccc(Cl)c(Cl)c2)nc1NCCCN [Example 39, N4-(3-aminopropyl)-N2-(3,4-dichlorophenyl)-5-methylpyrimidine-2,4-diamine] | 7.12 | 
NCCCCNc1nc(Nc2cc(Cl)cc(Cl)c2)ncc1Cl [Example 41, N4-(4-n-aminobutyl)-N2-(3,5-dichlorophenyl)-5-chloropyrimidine-2,4-diamine] | 7.51 | 
